# In ChEMBL document CHEMBL1777735, “Lipophilicity of acidic compounds: impact of ion pair partitioning on drug design” (Bioorg Med Chem Lett, 2011):
# What was measured:
# [1] = Plasma protein binding in human; format: ADME, cell-free; conditions: read-out: PPB (converted)
# [2] = Lipophilicity, log P of the compound; format: physicochemical; conditions: octanol/water
# [3] = 1-Octanol-water distribution coefficient, log D of the compound at pH 7.4 by shake-flask method; format: physicochemical
# [4] = 1-Octanol-sodium citrate buffer distribution coefficient, log D of the compound at pH 5.5 by shake-flask method; format: physicochemical
# [5] = 1-octanol/sodium citrate buffer, read-out: logD
compound,measurement,setting,value
CCOC(=O)[C@H](CCc1ccccc1)N[C@@H](C)C(=O)N1[C@H](C(=O)O)C[C@@H]2CCC[C@@H]21,fraction unbound,[1],0.105
CN(C)S(=O)(=O)NC(=O)CCCc1c(-c2ccc(F)cc2)[nH]c2ccc(C#N)cc12,logP,[2],2.6
same,logD,[3],2.8
same,logD,[4]; octanol/water,3.7
same,fraction unbound,[1],0.004
CCOC(=O)[C@H](CCc1ccccc1)N[C@@H](C)C(=O)N1CCC[C@H]1C(=O)O,logD,[3],-1.8
same,logD,[4]; [5],-0.5
same,fraction unbound,[1],0.5
CC(=O)c1ccc(S(=O)(=O)NC(=O)NC2CCCCC2)cc1 [ACETOHEXAMIDE],logP,[2]; read-out: logP,2.4
same,logD,[3],-0.3
same,logD,[4]; [5],1.3
same,fraction unbound,[1],0.25
CCOC(=O)[C@H](CCc1ccccc1)N[C@H]1CCc2ccccc2N(CC(=O)O)C1=O [BENAZEPRIL],fraction unbound,[1],0.041
CCCCNc1cc(C(=O)O)cc(S(N)(=O)=O)c1Oc1ccccc1 [BUMETANIDE],logD,[3],-0.6
same,logD,[4]; [5],1.1
same,fraction unbound,[1],0.016
O=C(O)CCCc1ccc(N(CCCl)CCCl)cc1 [CHLORAMBUCIL],logD,[3],1.4
same,logD,[4]; [5],3.2
same,fraction unbound,[1],0.01
CCc1cccc2c3c([nH]c12)C(CC)(CC(=O)O)OCC3 (stereo unspecified) [ETODOLAC],fraction unbound,[1],0.009
COc1ccc(Cl)cc1C(=O)NCCc1ccc(S(=O)(=O)NC(=O)NC2CCCCC2)cc1 [GLYBURIDE],logD,[3],2.2
same,logD,[4]; [5],3.5
same,fraction unbound,[1],0.002
Cc1cc(SCc2sc(-c3ccc(C(F)(F)F)cc3)nc2C)ccc1OCC(=O)O [GW501516],logD,[3],2.2
same,logD,[4]; [5],3.5
COc1ccc2c(c1)c(CC(=O)O)c(C)n2C(=O)c1ccc(Cl)cc1 [INDOMETHACIN],logP,[2]; read-out: logP,3.8
same,logD,[4]; [5],2.7
CCCCC1=NC2(CCCC2)C(=O)N1Cc1ccc(-c2ccccc2-c2nnn[nH]2)cc1 [IRBESARTAN],logD,[3],0.9
same,logD,[4]; [5],2.4
same,fraction unbound,[1],0.02
O=C(c1ccccc1)c1ccc2n1CCC2C(=O)O (stereo unspecified) [KETOROLAC],logP,[2]; read-out: logP,2.7
same,logD,[3],-1
same,logD,[4]; [5],0.6
same,fraction unbound,[1],0.008
CCCCc1nc(Cl)c(CO)n1Cc1ccc(-c2ccccc2-c2nn[nH]n2)cc1 [LOSARTAN],logD,[3],0.6
same,logD,[4]; [5],2.2
same,fraction unbound,[1],0.02
O=C(O)CCc1nc(-c2ccccc2)c(-c2ccccc2)o1 [OXAPROZIN],logP,[2]; read-out: logP,3.1
same,logD,[3],1
same,logD,[4]; [5],2.5
same,fraction unbound,[1],< 0.001
CN1C(C(=O)Nc2ccccn2)=C(O)c2ccccc2S1(=O)=O [PIROXICAM],logD,[3],-0.3
same,logD,[4]; [5],1.1
same,fraction unbound,[1],0.007
O=C(O)CCn1c2c(c3ccccc31)C[C@H](NS(=O)(=O)c1ccc(F)cc1)CC2 [RAMATROBAN],logP,[2]; read-out: logP,3
same,logD,[3],0.5
same,logD,[4]; [5],2.3
same,fraction unbound,[1],0.025
CCOc1cc(CC(=O)N[C@@H](CC(C)C)c2ccccc2N2CCCCC2)ccc1C(=O)O [REPAGLINIDE],logD,[3],2.2
same,logD,[4]; [5],3.2
same,fraction unbound,[1],0.009
Cc1nnc(NS(=O)(=O)c2ccc(N)cc2)s1 [SULFAMETHIZOLE],logD,[3],-1.6
same,logD,[4]; [5],0
same,fraction unbound,[1],0.065
Cc1ccc(S(=O)(=O)NC(=O)NN2CCCCCC2)cc1 [TOLAZAMIDE],logD,[3],0
same,logD,[4]; [5],1.2
same,fraction unbound,[1],0.06
Cc1ccc(C(=O)c2ccc(CC(=O)O)n2C)cc1 [TOLMETIN],logP,[2]; read-out: logP,2.7
same,logD,[3],-1
same,logD,[4]; [5],0.8
same,fraction unbound,[1],0.003
